What was measured:
HDAC6 = target: T1, HDAC6 (Homo sapiens, UniProt Q9UBN7); assay: Fluorescence-based HDAC inhibition assay, HDAC6; format: biochemical; settings: for LE (ligand efficiency): 1.4 × pIC50/number of heavy atoms; for selectivity over Class IIa isoforms HDAC4, 5, 7, and 9: HDAC6 vs HDAC4, 5, 7 and 9; for LipE (lipophilic ligand efficiency): pIC50 − clog Po/w
T1 construct: our assay that uses approximately 0.6 nM concentration of the full-length enzyme; made in house; host or cells: HEK293/T17 cells, transient transfection
T1 sequence (Q9UBN7 1-1215): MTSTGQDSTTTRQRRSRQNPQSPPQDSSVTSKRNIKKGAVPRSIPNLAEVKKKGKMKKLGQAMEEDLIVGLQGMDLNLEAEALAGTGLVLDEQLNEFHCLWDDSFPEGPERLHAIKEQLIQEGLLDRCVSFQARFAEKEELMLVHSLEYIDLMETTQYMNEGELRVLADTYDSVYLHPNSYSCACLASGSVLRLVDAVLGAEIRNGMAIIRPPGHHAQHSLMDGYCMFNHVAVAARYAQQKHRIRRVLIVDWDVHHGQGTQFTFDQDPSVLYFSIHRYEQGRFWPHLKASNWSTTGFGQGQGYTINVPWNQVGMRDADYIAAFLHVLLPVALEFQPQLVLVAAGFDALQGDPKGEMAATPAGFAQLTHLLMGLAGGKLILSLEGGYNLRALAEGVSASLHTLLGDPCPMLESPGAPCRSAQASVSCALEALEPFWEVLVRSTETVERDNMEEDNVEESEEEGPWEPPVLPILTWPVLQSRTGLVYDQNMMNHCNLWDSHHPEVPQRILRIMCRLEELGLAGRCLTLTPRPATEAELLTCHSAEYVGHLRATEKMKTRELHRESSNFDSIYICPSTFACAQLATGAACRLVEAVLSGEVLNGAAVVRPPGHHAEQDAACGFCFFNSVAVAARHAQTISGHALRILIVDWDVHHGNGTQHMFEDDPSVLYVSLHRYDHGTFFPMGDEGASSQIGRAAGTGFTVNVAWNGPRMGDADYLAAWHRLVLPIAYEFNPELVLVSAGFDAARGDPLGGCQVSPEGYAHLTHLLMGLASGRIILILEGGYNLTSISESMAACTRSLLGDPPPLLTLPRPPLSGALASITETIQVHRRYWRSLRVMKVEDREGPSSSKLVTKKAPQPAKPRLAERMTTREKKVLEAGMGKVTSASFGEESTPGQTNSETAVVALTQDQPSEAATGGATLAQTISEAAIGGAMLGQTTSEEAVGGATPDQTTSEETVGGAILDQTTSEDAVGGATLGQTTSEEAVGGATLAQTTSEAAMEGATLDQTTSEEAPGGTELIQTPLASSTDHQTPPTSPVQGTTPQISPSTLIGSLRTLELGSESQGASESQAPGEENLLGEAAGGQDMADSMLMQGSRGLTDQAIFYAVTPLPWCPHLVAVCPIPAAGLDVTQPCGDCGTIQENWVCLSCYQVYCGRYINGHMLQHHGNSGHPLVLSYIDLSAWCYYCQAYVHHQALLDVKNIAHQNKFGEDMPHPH
Experimental: (§1) Briefly, transiently transfected cells were harvested three days post-transfection and the cell pellets resuspended in a lysis buffer (50 mM Tris, 150 mM NaCl, 10 mM KCl, 2 mM MgCl2, 10% glycerol, 0.2% NP-40, 2 Units/mL benzonase, pH 8) supplemented with a cocktail of protease inhibitors (Roche, Basel, Switzerland). Cells were lysed by sonication (30 W; 3×20 s) on ice, and the cell lysate cleared by centrifugation at 40 000×g for 30 min at 4° C. […] Purified proteins were concentrated to 1 mg/mL, aliquoted, flash-frozen in liquid nitrogen, and stored at −80° C. until further use.
(§2) Briefly, individual HDACs were preincubated with dilution series of tested inhibitors (0-100 μM) in a 384-well plate in the total volume of 40 μL for 10 min at 37° C. in a reaction buffer comprising 50 mM HEPES, 140 mM NaCl, 10 mM KCl, 1 mM TCEP, 0.1% BSA, pH 7.4. Deacetylation reaction was started by the addition of 10 μL of a 10 μM substrate into the HDAC/inhibitor mixture. Following the 30 min incubation at 37° C., the reaction was terminated by the addition of 25 μL of the trypsin solution (4 mg/mL). Fluorescence development by trypsin was carried out at 37° C. for 15 and 60 min for Ac-GAK(Ac)-AMC and Boc-Lys(TFA)-AMC substrate, respectively. […] Non-linear regression analysis was employed to calculate IC50 values using the GraphPad Prism software. […] Reactions without the enzyme or the inhibitor were used to define 0% and 100% of the HDAC activity, respectively.

HDAC3 = target: T2, HDAC3 (Homo sapiens, UniProt O15379); assay: Fluorescence-based HDAC inhibition assay, HDAC3; format: biochemical; settings: for IC50: 10 μM Ac-GAK(Ac)-AMC substrate, mean of two experiments ± SEM
T2 construct: made in house; host or cells: HEK293/T17 cells, transient transfection
T2 sequence (O15379 whole entry): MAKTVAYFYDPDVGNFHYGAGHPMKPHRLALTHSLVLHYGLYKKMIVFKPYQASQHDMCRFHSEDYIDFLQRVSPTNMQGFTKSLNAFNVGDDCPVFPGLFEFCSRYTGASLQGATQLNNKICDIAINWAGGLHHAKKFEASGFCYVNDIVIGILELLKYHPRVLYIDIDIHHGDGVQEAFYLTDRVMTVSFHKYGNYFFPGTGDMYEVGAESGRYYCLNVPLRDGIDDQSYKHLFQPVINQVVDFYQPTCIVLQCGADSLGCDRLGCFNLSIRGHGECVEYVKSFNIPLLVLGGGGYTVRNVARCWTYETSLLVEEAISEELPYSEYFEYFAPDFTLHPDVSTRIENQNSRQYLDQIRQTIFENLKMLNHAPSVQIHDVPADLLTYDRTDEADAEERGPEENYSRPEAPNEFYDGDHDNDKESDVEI
T2 sequence (Q9Y618 389-480 partner limits assumed): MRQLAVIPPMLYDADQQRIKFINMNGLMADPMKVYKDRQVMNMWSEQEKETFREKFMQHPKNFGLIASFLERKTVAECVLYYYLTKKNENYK
Experimental: as §1, §2

HDAC4 = HDAC4 (Homo sapiens, UniProt P56524); assay: Fluorescence-based HDAC inhibition assay, HDAC4; format: biochemical; settings: for IC50: 10 μM Boc-Lys(TFA)-AMC substrate, mean of two experiments ± SEM
Chain of HDAC4 (P56524 whole entry): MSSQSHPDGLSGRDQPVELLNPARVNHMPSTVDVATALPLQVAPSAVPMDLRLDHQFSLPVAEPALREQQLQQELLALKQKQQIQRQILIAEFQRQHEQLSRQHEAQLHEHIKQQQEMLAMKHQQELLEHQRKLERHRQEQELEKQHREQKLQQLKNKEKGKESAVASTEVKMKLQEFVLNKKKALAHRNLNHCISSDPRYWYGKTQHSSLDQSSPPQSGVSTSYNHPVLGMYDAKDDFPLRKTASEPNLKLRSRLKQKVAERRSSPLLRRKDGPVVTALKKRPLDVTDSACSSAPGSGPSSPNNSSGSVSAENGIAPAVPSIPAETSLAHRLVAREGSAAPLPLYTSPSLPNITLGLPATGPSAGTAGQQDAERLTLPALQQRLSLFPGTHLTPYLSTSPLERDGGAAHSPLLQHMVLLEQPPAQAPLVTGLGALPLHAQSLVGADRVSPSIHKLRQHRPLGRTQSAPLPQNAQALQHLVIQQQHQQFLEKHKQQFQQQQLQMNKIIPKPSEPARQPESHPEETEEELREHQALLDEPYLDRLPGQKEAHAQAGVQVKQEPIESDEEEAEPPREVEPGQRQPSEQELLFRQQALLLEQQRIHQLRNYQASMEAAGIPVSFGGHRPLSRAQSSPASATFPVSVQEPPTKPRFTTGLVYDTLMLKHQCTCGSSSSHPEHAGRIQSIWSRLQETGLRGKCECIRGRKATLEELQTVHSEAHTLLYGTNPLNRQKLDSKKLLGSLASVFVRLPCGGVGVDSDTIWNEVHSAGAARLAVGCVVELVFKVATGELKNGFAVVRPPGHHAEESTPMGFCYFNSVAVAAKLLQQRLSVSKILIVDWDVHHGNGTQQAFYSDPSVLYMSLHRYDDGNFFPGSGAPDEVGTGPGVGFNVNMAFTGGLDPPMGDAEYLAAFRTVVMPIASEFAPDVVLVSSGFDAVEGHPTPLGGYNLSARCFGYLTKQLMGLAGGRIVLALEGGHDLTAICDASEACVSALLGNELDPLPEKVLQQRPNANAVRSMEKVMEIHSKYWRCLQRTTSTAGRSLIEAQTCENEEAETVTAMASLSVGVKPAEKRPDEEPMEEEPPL
Experimental: as §1, with “Large scale expression of human HDACs was carried out in HEK293/T17 cells essentially as described previously (see, e.g., Falkenberg et al., Nat. Rev. Drug Discov. 13, 673-691 (2014); or Matthias et al., Cell Cycle 7: 7-10 (2008)). Briefly,” for “Briefly,”
Briefly, individual HDACs were preincubated with dilution series of tested inhibitors (0-100 μM) in a 384-well plate in the total volume of 40 μL for 10 min at 37° C. in a reaction buffer comprising 50 mM HEPES, 140 mM NaCl, 10 mM KCl, 1 mM TCEP, 0.1% BSA, pH 7.4. Deacetylation reaction was started by the addition of 10 μL of a 10 μM substrate into the HDAC/inhibitor mixture. Following the 30 min incubation at 37° C., the reaction was terminated by the addition of 25 μL of the trypsin solution (4 mg/mL). Fluorescence development by trypsin was carried out at 37° C. for 15 and 60 min for Ac-GAK(Ac)-AMC and Boc-Lys(TFA)-AMC substrate, respectively. Released aminomethylcoumarin was quantified using a CLARIOstar fluorimeter with the excitation and emission wavelengths set to 365 nm and 440 nm, respectively. Non-linear regression analysis was employed to calculate IC50 values using the GraphPad Prism software. […] Reactions without the enzyme or the inhibitor were used to define 0% and 100% of the HDAC activity, respectively.

[1] = 10 μM Ac-GAK(Ac)-AMC substrate, mean of two experiments ± SEM

## O=C(NO)c1ccc(CN(CCCCO)C(=O)Nc2ccccc2)cc1 [Compound 6c, reference compound]
HDAC6
  SI (HDAC6 selectivity index), HDAC6: 1
  LE (ligand efficiency): 0.50
  selectivity over Class IIa isoforms HDAC4, 5, 7, and 9: thousand-fold selectivity
  LipE (lipophilic ligand efficiency): 6.98
HDAC6; [1]
  IC50: 0.5 nM
Human plasma stability
  Human plasma stability (t1/2, h): >5 h
HDAC3
  IC50: 581 ± 18 nM
HDAC4
  IC50: 14000 nM

## CCCCN(Cc1ccc(C(=O)NO)cc1)C(=O)Nc1ccc(CN)cc1 [Compound 6b, 4-((3-(4-(Aminomethyl)phenyl)-1-butylureido)methyl)-N-hydroxybenzamide]
HDAC6
  SI (HDAC6 selectivity index), HDAC6: 1
  LE (ligand efficiency): 0.47
  LipE (lipophilic ligand efficiency): 6.59
HDAC6; [1]
  IC50: 0.9 ± 0.7 nM
Human plasma stability
  Human plasma stability (t1/2, h): >5 h
HDAC3
  SI (HDAC6 selectivity index over HDAC3): 492
  IC50: 443 ± 108 nM
HDAC4
  SI (HDAC6 selectivity index over HDAC4): 25,700
  IC50: 23100 nM

## NCc1ccc(NC(=O)N(CCCCO)Cc2ccc(C(=O)NO)cc2)cc1 [Compound 6a, 4-((3-(4-(Aminomethyl)phenyl)-1-(4-hydroxybutyl)ureido)methyl)-N-hydroxybenz-amide]
HDAC6
  SI (HDAC6 selectivity index), HDAC6: 1
  LE (ligand efficiency): 0.47
  selectivity over Class IIa isoforms HDAC4, 5, 7, and 9: thousand-fold selectivity
  LipE (lipophilic ligand efficiency): 7.57
HDAC6; [1]
  IC50: 0.4 nM
HDAC6; Table 2
  IC50: 0.4 nM
Human plasma stability
  Human plasma stability (t1/2, h): >5 h
HDAC3
  SI (HDAC6 selectivity index over HDAC3): 880
  IC50: 352 ± 2 nM
HDAC4
  SI (HDAC6 selectivity index over HDAC4): 20,600
  IC50: 8250 nM
